From patent US20260125375A1 (Pfizer Inc., priority 2022, published 2026)

Experiments:
CBL-B (residues 36-427) = biological target: T1, CBL-B (residues 36-427) (Homo sapiens, UniProt Q13191); assay: Ligand Displacement Assay (LDA), HTRF competitive binding against BODIPY-labeled fluorescent tracer, CBL-B; settings: geometric mean of the number of tests, read-out: CBL-B Ki (nM) GMean
T1 construct: Purified CBL-B (residues 36-427) and C-CBL (residues 46-435) proteins from baculovirus-infected insect cells; made in house; host or cells: baculovirus-infected insect cells
Excerpt: (§1) Ligand Displacement Assay (LDA)
(§2) The purpose of the homogeneous time-resolved fluorescence energy transfer (HTRF) ligand displacement assay is to determine whether the compounds of the disclosure are competitive with a BODIPY-labeled compound; “fluorescent tracer” aka [6-cyclopropyl-5-(17-{5-[(3,5-dimethyl-2H-pyrrol-2-ylidene-KN)methyl]-1H-pyrrol-2-yl-κN}-15-oxo-5,8,11-trioxa-2,14-diazaheptadecan-1-yl)-N-(3-{3-[(4-methyl-4H-1,2,4-triazol-3-yl)methyl]oxetan-3-yl}phenyl)pyridine-2-carboxamidato](difluorido)boron and to assess CBL-B binding selectivity over C-CBL. The synthesis of this fluorescent tracer compound is described below.
(§3) Purified CBL-B (residues 36-427) and C-CBL (residues 46-435) proteins from baculovirus-infected insect cells were biotin labeled on their amino-terminal AviTag™ epitopes by the E. coli biotin ligase BirA to bind terbium-labeled streptavidin (SA-Tb). After optimizing the assays and determining KD values for the fluorescent tracer to CBL-B and C-CBL, compounds were tested using three-fold serial dilutions in duplicate from a top concentration of […] with a final DMSO concentration of 2%. […] The Ki (nM) values reported are the geometric means (GMean) of the number of tests conducted.

C-CBL (residues 46-435) = biological target: T2, C-CBL (residues 46-435) (Homo sapiens, UniProt P22681); assay: Ligand Displacement Assay (LDA), HTRF competitive binding against BODIPY-labeled fluorescent tracer, C-CBL; settings: geometric mean of the number of tests, read-out: C-CBL Ki (nM) GMean
T2 construct: Purified CBL-B (residues 36-427) and C-CBL (residues 46-435) proteins from baculovirus-infected insect cells; made in house; host or cells: baculovirus-infected insect cells
T2 sequence (P22681 46-435): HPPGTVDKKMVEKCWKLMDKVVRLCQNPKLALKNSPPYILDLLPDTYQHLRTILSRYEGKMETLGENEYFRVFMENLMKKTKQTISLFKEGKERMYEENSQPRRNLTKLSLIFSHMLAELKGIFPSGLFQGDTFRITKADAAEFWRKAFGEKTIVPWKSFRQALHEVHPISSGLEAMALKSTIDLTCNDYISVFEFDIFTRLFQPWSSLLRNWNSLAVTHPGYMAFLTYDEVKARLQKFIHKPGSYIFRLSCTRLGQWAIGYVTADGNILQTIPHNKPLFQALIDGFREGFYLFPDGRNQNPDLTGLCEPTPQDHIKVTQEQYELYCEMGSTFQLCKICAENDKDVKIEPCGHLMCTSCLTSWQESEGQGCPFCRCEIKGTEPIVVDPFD
Excerpt: as §1, §2, §3

In the case of CC(NC(=O)[C@@H](C)O)c1nc(C(F)(F)F)cc2c(-c3cccc([C@H](c4nncn4C)C4CCC4)c3)n[nH]c12 (single isomer, unassigned) [Example I6], the Ki (CBL-B (residues 36-427)) is reported as 7.8 nM and the Ki (C-CBL (residues 46-435)) is reported as 84.3 nM.
Work on C[C@H](N[C@H]1COC[C@H]1O)c1nc(C(F)(F)F)cc2c(-c3cccc([C@H](c4nncn4C)C4CCC4)c3)n[nH]c12 (single isomer, unassigned) [Example D61] yielded a Ki (CBL-B (residues 36-427)) of 22 nM and a Ki (C-CBL (residues 46-435)) of 145 nM.
Cn1cnnc1[C@@H](c1cccc(-c2n[nH]c3c(CN[C@@H]4CC[C@@H]4O)nc(C(F)(F)F)cc23)c1)C1CCC1 (single isomer, unassigned) [Example D93] showed a Ki (CBL-B (residues 36-427)) of 0.8 nM and a Ki (C-CBL (residues 46-435)) of 2.4 nM.
CC(O)c1nc(C2CC2)cc2c(-c3cccc(C4(Cc5nncn5C)COC4)c3)n[nH]c12 (single isomer, unassigned) [Example H6, (1ξ)-1-[5-cyclopropyl-3-(3-{3-[(4-methyl-4H-1,2,4-triazol-3-yl)methyl]oxetan-3-yl}phenyl)-1H-pyrazolo[3,4-c]pyridin-7-yl]ethan-1-ol] showed a Ki (CBL-B (residues 36-427)) of 35.6 nM and a Ki (C-CBL (residues 46-435)) of 142 nM.
For CC(=O)NC(C)c1nc(C(F)(F)F)cc2c(-c3cccc([C@H](c4nncn4C)C4CCC4)c3)n[nH]c12 (single isomer, unassigned) [Example M2], the Ki (CBL-B (residues 36-427)) was 30.9 nM and the Ki (C-CBL (residues 46-435)) was 225 nM.
Compound Cn1cnnc1[C@@H](c1cccc(-c2n[nH]c3ncc(C(F)(F)F)cc23)c1)C1CCC1 [Example A5, 3-{3-[(R)-cyclobutyl(4-methyl-4H-1,2,4-triazol-3-yl)methyl]phenyl}-5-(trifluoromethyl)-1H-pyrazolo[3,4-b]pyridine] has a Ki (CBL-B (residues 36-427)) of 89.1 nM and a Ki (C-CBL (residues 46-435)) of 1060 nM.
CC[C@@H](c1cccc(-c2n[nH]c3c([C@H](C)NC[C@H](C)O)nc(C(F)(F)F)cc23)c1)c1nncn1C (single isomer, unassigned) [Example D78] showed a Ki (CBL-B (residues 36-427)) of 71.2 nM and a Ki (C-CBL (residues 46-435)) of 271 nM.
Cn1cnnc1CC1(c2cccc(-c3n[nH]c4cnc(C(F)(F)F)nc34)c2)COC1 [Example B2, 3-(3-{3-[(4-methyl-4H-1,2,4-triazol-3-yl)methyl]oxetan-3-yl}phenyl)-5-(trifluoromethyl)-1H-pyrazolo[4,3-d]pyrimidine] gave a Ki (CBL-B (residues 36-427)) of 398 nM and a Ki (C-CBL (residues 46-435)) of 2400 nM.
Compound C[C@H](N[C@H]1COC[C@H]1O)c1nc(C(F)(F)F)cc2c(-c3cccc([C@H](c4nncn4C)C4CCC4)c3)n[nH]c12 (single isomer, unassigned) [Example D57] has a Ki (CBL-B (residues 36-427)) of 5.2 nM and a Ki (C-CBL (residues 46-435)) of 46.7 nM.
In the case of Cn1cnnc1CC1(c2cccc(-c3n[nH]c4ccc(F)cc34)c2)COC1 [Example B6, 5-fluoro-3-(3-{3-[(4-methyl-4H-1,2,4-triazol-3-yl)methyl]oxetan-3-yl}phenyl)-1H-indazole], the Ki (CBL-B (residues 36-427)) is reported as 71.8 nM and the Ki (C-CBL (residues 46-435)) is reported as 437 nM.
In the case of CN(C)c1nc2[nH]nc(-c3cccc([C@H](c4nncn4C)C4CCC4)c3)c2cc1C(F)(F)F [Example E1, 3-{3-[(R)-cyclobutyl(4-methyl-4H-1,2,4-triazol-3-yl)methyl]phenyl}-N,N-dimethyl-5-(trifluoromethyl)-1H-pyrazolo[3,4-b]pyridin-6-amine], the Ki (CBL-B (residues 36-427)) is reported as 268 nM and the Ki (C-CBL (residues 46-435)) is reported as 2320 nM.
C[C@@H](N[C@H]1COC[C@@H]1O)c1nc(C(F)(F)F)cc2c(-c3cccc([C@H](c4nncn4C)C4CCC4)c3)n[nH]c12 (single isomer, unassigned) [Example D62] gave a Ki (CBL-B (residues 36-427)) of 4.3 nM and a Ki (C-CBL (residues 46-435)) of 39.8 nM.
With Cn1cnnc1CC1(c2cccc(-c3n[nH]c4cc(F)c(F)cc34)c2)COC1 [Example B5, 5,6-difluoro-3-(3-{3-[(4-methyl-4H-1,2,4-triazol-3-yl)methyl]oxetan-3-yl}phenyl)-1H-indazole] the Ki (CBL-B (residues 36-427)) was 58.9 nM and the Ki (C-CBL (residues 46-435)) was 375 nM.
Compound C[C@@H](N[C@@H]1COC[C@H]1O)c1nc(C(F)(F)F)cc2c(-c3cccc([C@H](c4nncn4C)C4CCC4)c3)n[nH]c12 (single isomer, unassigned) [Example D60] has a Ki (CBL-B (residues 36-427)) of 12.3 nM and a Ki (C-CBL (residues 46-435)) of 82.3 nM.
Cn1cnnc1[C@@H](c1cccc(-c2n[nH]c3c(C4CCCN4)nc(C(F)(F)F)cc23)c1)C1CCC1 (single isomer, unassigned) [Example L3] was tested, and the Ki (CBL-B (residues 36-427)) was 20.1 nM and the Ki (C-CBL (residues 46-435)) was 159 nM.
